Like-named read-outs stand apart in the source and are kept apart here.
Key:
recombinant GSK3β kinase = recombinant GSK3β kinase (Homo sapiens (Human), UniProt P49841); assay: GSK3β kinase assay (Ser/Thr 09 peptide Z-lyte FRET); format: biochemical; settings: 46 μM ATP, 1 h room temperature;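 further: kinase activity read as coumarin to fluorescein emission ratio, 11-point threefold dilutions from 10 µM to 0.0003 µM in duplicate, unphosphorylated and phosphorylated peptide as 0% and 100% controls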
Chain of recombinant GSK3β kinase (P49841 whole entry): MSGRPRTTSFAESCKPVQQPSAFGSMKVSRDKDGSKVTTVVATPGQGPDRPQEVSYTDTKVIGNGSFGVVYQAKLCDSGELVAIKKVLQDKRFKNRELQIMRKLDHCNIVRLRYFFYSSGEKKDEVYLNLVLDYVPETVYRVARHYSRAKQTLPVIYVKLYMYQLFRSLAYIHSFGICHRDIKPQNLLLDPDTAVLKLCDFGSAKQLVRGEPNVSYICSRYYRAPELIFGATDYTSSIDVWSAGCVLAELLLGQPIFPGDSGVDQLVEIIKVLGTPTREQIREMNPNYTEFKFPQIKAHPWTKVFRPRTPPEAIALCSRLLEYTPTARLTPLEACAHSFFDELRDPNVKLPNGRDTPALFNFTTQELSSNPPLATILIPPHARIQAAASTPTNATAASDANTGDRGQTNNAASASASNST

[1] = tested on: Tau phosphorylation at Ser396 (pSer396); assay: Tau phosphorylation assay (pSer396 ELISA / western blot) in SH-SY5Y cells; format: cell-based, human; settings: Homo sapiens, read-out: pSer396 Tau EC50;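 further: EC50 for reduction of Tau pSer396 in lysed cells, measured by colorimetric ELISA or chemiluminescent western blot, both using the same pSer396 antibody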
IL-6 = IL-6 inhibition in LPS-stimulated human peripheral blood mononuclear cells (HTRF); format: cell-based; settings: Homo sapiens, PBMC; for inhibition at 10 µM: read-out: percent value in parentheses beside EC50 >10 μM; for EC50: Table 9, huPBMCs, LPS 50 ng/mL, 22 hours, dose-response starting from 10 μM;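 on all read-outs here: IL-6 detected by HTRF with an XL665- and Cryptate-labelled anti-IL-6 antibody pair, samples run in duplicate, EC50 obtained from a four-parameter Levenberg-Marquardt curve fit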
Protocol: After 22 hour incubation, a mixture of anti-IL6 XL665 and anti-IL-6 Cryptate diluted in reconstitution buffer (Catalog #62IL6PEC, Cisbio Inc., Bedford, Mass.) was added to each well. […] All samples were processed in duplicate. […] EC50 was determined using software generated by Dotmatics Limited (Windhill Bishops Stortford Herts, UK) using the Levenberg-Marquardt 4 parameter fitting procedure with finite different gradients.

[2] = tested on: Wnt pathway (Sp5-Luc reporter, TCF/LEF binding sites) in SW480 colon carcinoma cells; assay: Screening assay for Wnt activity: Sp5-Luc reporter gene assay; format: cell-based, human; settings: Homo sapiens; for inhibition at 10 µM: SW480, read-out: percent inhibition at 10 μM; for EC50: Sp5-Luc reporter, SW480 cells, 36 to 48 hours;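 on all read-outs here: firefly luciferase luminescence read in stably transduced SW480 cells carrying the Sp5 promoter reporter with eight TCF/LEF sites, compounds given in 0.1% DMSO final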
Protocol: The screening assay for Wnt activity is described as follows.
Following incubation, 15 μl of BriteLite Plus luminescence reagent (Perkin Elmer) was added to each well of the 384-well assay plates. The plates were placed on an orbital shaker for 2 min and then luminescence was quantified using the Envision (Perkin Elmer) plate reader.

[3] = tested on: SW480 colon carcinoma cells; assay: Cell viability assay (CellTiter-Glo); format: cell-based, human; settings: Homo sapiens; for EC50: 96 h, SW480 cells, CellTiter-Glo, four days incubation
[4] = target: recombinant DYRK1A kinase (Homo sapiens (Human), UniProt Q13627); assay: DYRK1A kinase assay (Ser/Thr 18 peptide Z-lyte FRET); format: biochemical; settings: 30 μM ATP, 1 h room temperature;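 further: Read-out is the coumarin to fluorescein emission ratio, referenced to unphosphorylated (0%) and phosphorylated (100%) Ser/Thr 18 peptide controls, values from dose-response curves by non-linear regression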
[5] = tested on: α-smooth muscle actin (αSMA) positive LL29 cells; assay: Inhibition of fibrotic process: αSMA in TGF-β1 treated primary human fibroblasts from IPF patients; format: cell-based; settings: Homo sapiens, Fibroblast; for EC50: 96 h, Table 8, LL29 fibroblasts from IPF patients, TGF-β1 20 ng/mL, 4 days, dose-response 10 μM to 0.94 nM; for inhibition at 10 µM: read-out: percent value in parentheses beside EC50 >10 μM;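 on all read-outs here: controls were TGF-β1 stimulated wells with DMSO vehicle (positive) and cells given DMSO alone (negative), cultured in F12 medium with 1% fetal bovine serum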
[6] = SH-SY5Y cells, overnight (16-18 h) exposure

| SMILES | EC50 (recombinant GSK3β kinase) [µM] | EC50 [1, 6] [µM] | inhibition at 10 µM (IL-6) [%] | EC50 (IL-6) [µM] | inhibition at 10 µM [2] [%] | EC50 [2] [µM] | EC50 [3] [µM] | EC50 [4] [µM] | EC50 [5] [µM] | inhibition at 10 µM [5] [%] | inhibition at 10 µM ([3]; SW480, read-out: percent inhibition at 10 μM) [%] | EC50 ([1]; SH-SY5Y) [µM] |
| --- | --- | --- | --- | --- | --- | --- | --- | --- | --- | --- | --- | --- |
| CC(C)CN1CCC(F)(C(=O)Nc2cc3cc(-c4cn(C)nn4)ccc3cn2)CC1 [Compound 281, 4-Fluoro-1-isobutyl-N-(6-(1-methyl-1H-1,2,3-triazol-4-yl)isoquinolin-3-yl) piperidine-4-carboxamide] | 0.071 | 0.518 | 0 | > 10 | 47 | > 10 | > 10 | 0.0081 | 0.486 | – | – | – |
| CCN1CCC(F)(C(=O)Nc2cc3cc(-c4cn(C)nn4)ccc3cn2)CC1 [Compound 282, 1-Ethyl-4-fluoro-N-(6-(1-methyl-1H-1,2,3-triazol-4-yl)isoquinolin-3-yl) piperidine-4-carboxamide] | 0.134 | 0.973 | 2.4 | > 10 | 49.3 | > 10 | 6.61 | 0.0115 | 1.94 | – | – | – |
| O=C(Nc1cc2cc(-c3cnn4c3CN(CCF)CC4)ccc2cn1)C1CCC(F)(F)CC1 [Compound 283, 4,4-Difluoro-N-(6-(5-(2-fluoroethyl)-4,5,6,7-tetrahydropyrazolo[1,5-a]pyrazin-3-yl)isoquinolin-3-yl)cyclohexane-1-carboxamide] | 0.062 | 0.411 | – | 5.45 | – | 2.49 | 3.12 | 0.007 | 0.782 | – | – | – |
| Cn1cc(-c2ccc3cnc(NC(=O)CN4CCCC4)cc3c2)cn1 [Compound 284, N-(6-(1-Methyl-1H-pyrazol-4-yl)isoquinolin-3-yl)-2-(pyrrolidin-1-yl) acetamide] | 0.037 | 0.359 | – | 1.18 | – | 1.87 | 2.67 | 0.0071 | 2.34 | – | – | – |
| CCn1cc(-c2ccc3cnc(NC(=O)CN4CCCC4)cc3c2)cn1 [Compound 285, N-(6-(1-Ethyl-1H-pyrazol-4-yl)isoquinolin-3-yl)-2-(pyrrolidin-1-yl) acetamide] | 0.149 | 1.58 | – | 2.27 | – | 3.41 | 7.02 | 0.0442 | 1.47 | – | – | – |
| O=C(CN1CCCC1)Nc1cc2cc(-c3cnn(C4CC4)c3)ccc2cn1 [Compound 286, N-(6-(1-Cyclopropyl-1H-pyrazol-4-yl)isoquinolin-3-yl)-2-(pyrrolidin-1-yl) acetamide] | 0.186 | 1.15 | – | 1.23 | – | 3.14 | 3.29 | 0.0649 | > 10 | 16.4 | – | – |
| CC(C(=O)Nc1cc2cc(-c3cnn(C)c3)ccc2cn1)N1CCCC1 (centres unmarked) [Compound 288, N-(6-(1-Methyl-1H-pyrazol-4-yl)isoquinolin-3-yl)-2-(pyrrolidin-1-yl) propanamide] | 0.02 | 0.159 | – | 1.24 | – | 1.2 | 2.66 | 0.0273 | 0.532 | – | – | – |
| C[C@@H]1CCCN1CC(=O)Nc1cc2cc(-c3cnn(C)c3)ccc2cn1 [Compound 289, (R)—N-(6-(1-Methyl-1H-pyrazol-4-yl)isoquinolin-3-yl)-2-(2-methylpyrrolidin-1-yl)acetamide] | 0.062 | 0.185 | – | 3.2 | – | 2.65 | 7.75 | 0.0137 | > 10 | 14.3 | – | – |
| C[C@H]1CCCN1CC(=O)Nc1cc2cc(-c3cnn(C)c3)ccc2cn1 [Compound 290, (S)—N-(6-(1-Methyl-1H-pyrazol-4-yl)isoquinolin-3-yl)-2-(2-methylpyrrolidin-1-yl)acetamide] | 0.075 | 0.49 | – | 4.78 | – | 5.23 | 3.78 | 0.0058 | 1.06 | – | – | – |
| Cn1cc(-c2ccc3cnc(NC(=O)CN4CC5CC5C4)cc3c2)cn1 (centres unmarked) [Compound 291, 2-(3-Azabicyclo[3.1.0]hexan-3-yl)-N-(6-(1-methyl-1H-pyrazol-4-yl)isoquinolin-3-yl)acetamide] | 0.043 | 0.716 | – | 9.83 | – | 4.64 | > 10 | 0.0082 | > 10 | 49.6 | 24.4 | – |
| Cn1cc(-c2ccc3cnc(NC(=O)CN4C5CCC4CC5)cc3c2)cn1 [Compound 292, 2-(7-Azabicyclo[2.2.1]heptan-7-yl)-N-(6-(1-methyl-1H-pyrazol-4-yl)isoquinolin-3-yl)acetamide] | 0.173 | – | – | 1.12 | – | 3.39 | 2.82 | 0.0078 | 2.22 | – | – | 1.35 |
| CC1CCN(CC(=O)Nc2cc3cc(-c4cnn(C)c4)ccc3cn2)CC1 [Compound 293, N-(6-(1-Methyl-1H-pyrazol-4-yl)isoquinolin-3-yl)-2-(4-methylpiperidin-1-yl)acetamide] | 0.059 | 0.668 | – | 1.17 | – | 3.22 | 2.86 | 0.005 | 7.77 | – | – | – |
| Cn1cc(-c2ccc3cnc(NC(=O)CN4CCC(C(F)(F)F)CC4)cc3c2)cn1 [Compound 294, N-(6-(1-Methyl-1H-pyrazol-4-yl)isoquinolin-3-yl)-2-(4-(trifluoromethyl)piperidin-1-yl)acetamide] | 0.041 | 0.905 | – | 6.23 | – | 5.19 | 4.15 | 0.0124 | > 10 | 41.3 | – | – |
| Cn1cc(-c2ccc3cnc(NC(=O)CN4CCC5(CC4)CC5)cc3c2)cn1 [Compound 296, N-(6-(1-Methyl-1H-pyrazol-4-yl)isoquinolin-3-yl)-2-(6-azaspiro[2.5]octan-6-yl)acetamide] | 0.08 | 0.978 | – | 1.57 | – | 3.48 | 3.46 | 0.0143 | 1.96 | – | – | – |
| O=C(Nc1cc2cc(-c3cnn(C4CC4)c3)ccc2cn1)C1CCN(CCC(F)(F)F)CC1 [Compound 297, N-(6-(1-Cyclopropyl-1H-pyrazol-4-yl)isoquinolin-3-yl)-1-(3,3,3-trifluoropropyl)piperidine-4-carboxamide] | 0.155 | 1.42 | – | 1.17 | – | 4.81 | 5.72 | 0.0237 | 0.447 | – | – | – |
| Cn1ncc(-c2ccc3cnc(NC(=O)C4CCC(F)(F)CC4)cc3c2)c1CN1CCC1 [Compound 298, N-(6-(5-(Azetidin-1-ylmethyl)-1-methyl-1H-pyrazol-4-yl)isoquinolin-3-yl)-4,4-difluorocyclohexane-1-carboxamide] | 0.125 | 1.39 | – | 5.53 | – | 3.23 | 2.38 | 0.0135 | 1.34 | – | – | – |
| Cn1ncc(-c2ccc3cnc(NC(=O)C4CCC(F)(F)CC4)cc3c2)c1CN1CCCC1 [Compound 299, 4,4-Difluoro-N-(6-(1-methyl-5-(pyrrolidin-1-ylmethyl)-1H-pyrazol-4-yl)isoquinolin-3-yl)cyclohexane-1-carboxamide] | 0.044 | 0.573 | – | 4.53 | – | 1.53 | 2.24 | 0.0067 | 1.21 | – | – | – |
